Test results reported in US5348980A, “Enantiomers derived from (S)-2-amino-2-(3,4-dichlorobenzyl)-1-propanol, their use and method of preparation” (Institute de Recherche Jouveinal, priority 1992, dated 1994).
Counter-ions that a name gives are not always drawn.

Test system: bronchoconstriction caused by 100 nmol/kg of histamine
Experiment: Histamine-induced bronchoconstriction test (Konzett and Rossler), intranasal-powder (In.P.) administration
Assay type: in vivo, guinea pigs
From the text: Furthermore, the antihistaminic properties were studied in guinea pigs by the bronchoconstriction test performed according to the method of H. Konzett and R. Rossler (Arch. Exp. Path. Pharmak.--Naunym Schmiedeberg - 195, 71-74, 1940). The products of the invention were studied in this test after administration in solution or in suspension via the intravenous and intraduodenal routes, and also in powder form via the intranasal route. Irrespective of the administration route, the preparation of the animals employed in the test consists in first anesthetizing male guinea pigs weighing 350 to 400 g by intraperitoneal (i.p.) injection of a sterile and isotonic solution containing 25% (w/v.) of ethyl carbamate on the basis of 6.0 ml/kg, and in then fitting the animals with a tracheal cannula to permit measurement of the pulmonary pressure, a cannula in the right jugular vein for the intravenous (i.v.) administration of solution, and also a cannula in the left carotid artery for qualitative observation of the blood pressure. The animals are then connected to a pump (Harvard, ref. 50-1718) in order to maintain an artificial ventilation at a frequency of 60 insufflations per minute; the intratracheal pressure is recorded by an assembly comprising a transducer, an amplifier and a recorder (Gould, respective refs.: PLOEZ, 13-4615-50 and 8188-[…]-06). Fitted in this way, the animals are left undisturbed for 10 minutes before the beginning of the actual experiment, which is carried out in different ways according to the administration route envisaged. c) intranasal-powder (In.p) administration The test product is administered via a nasal insufflation of a powder consisting of 20 mg of lactose loaded with the appropriate quantity of the test product. Before this insufflation, the artificial ventilation of the animal is momentarily stopped in order to facilitate the pulmonary penetration of the compound. […] Failing this expression, the results are expressed as a % change at the time in question and for a given concentration of the test product. […]

C=CCN(C)[C@](C)(CO)Cc1ccc(Cl)c(Cl)c1 [Example 2, base, (S)-(+)-N-allyl-2-methylamino-2-(3,4-dichlorobenzyl)-1-propanol]
ED50 (Cavia porcellus, 5 min, t = 5 min, read-out: ED50 at t = 5 min, inhibition of histamine-induced bronchoconstriction): 1.28 µmol/kg

C=CCN(C)[C@](C)(CO)Cc1ccc(Cl)c(Cl)c1 [Example 2, hydrochloride, (S)-(+)-N-allyl-2-methylamino-2-(3,4-dichlorobenzyl)-1-propanol]
ED50 at t = 5 min, inhibition of histamine-induced bronchoconstriction: 1.77 µmol/kg
